IC50, melting point and inhibition in % data for nine molecules are collected here from patent US20080293758A1, “Combination of a Steroid Sulfatase Inhibitor and an Ascomycin” (Novartis AG, priority 2005, published 2008).

As usually defined, the IC50 is the concentration needed to halve the response being measured. A higher IC50 goes with a need for much substance. Usually melting point stands for the temperature, or range, at which the solid turns liquid.

Data set [1] has as its target T1, steroid sulfatase in human cadaver skin homogenate (Homo sapiens, UniProt P08842).
T1 construct: Frozen specimens of human cadaver skin (about 100 mg per sample) are minced into small pieces; from tissue; host or cells: human cadaver skin, minced and suspended in Tris buffer with 0.1% Triton X-100
T1 sequence (P08842 22-583): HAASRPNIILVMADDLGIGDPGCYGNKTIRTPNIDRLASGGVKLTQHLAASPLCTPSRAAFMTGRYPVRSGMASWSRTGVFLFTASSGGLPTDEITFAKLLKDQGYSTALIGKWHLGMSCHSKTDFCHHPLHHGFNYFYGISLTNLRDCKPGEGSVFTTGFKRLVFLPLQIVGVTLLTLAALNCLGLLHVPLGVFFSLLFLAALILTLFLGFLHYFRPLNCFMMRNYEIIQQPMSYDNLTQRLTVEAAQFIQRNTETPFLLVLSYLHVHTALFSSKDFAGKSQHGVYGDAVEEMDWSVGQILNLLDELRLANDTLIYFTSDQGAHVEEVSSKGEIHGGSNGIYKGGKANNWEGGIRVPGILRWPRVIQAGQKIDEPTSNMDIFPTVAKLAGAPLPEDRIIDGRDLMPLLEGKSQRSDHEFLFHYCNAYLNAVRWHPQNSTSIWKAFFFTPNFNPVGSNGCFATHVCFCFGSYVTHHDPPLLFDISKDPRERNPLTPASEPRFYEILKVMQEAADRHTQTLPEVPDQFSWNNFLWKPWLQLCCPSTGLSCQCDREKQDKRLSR
Nature of the data set: Assay Using Human Skin Homogenate (DHEAS cleavage). In kind it is biochemical. The note with it: 18 hrs at 37° C. Here is the method:
Frozen specimens of human cadaver skin (about 100 mg per sample) are minced into small pieces (about 1×1 mm) using sharp scissors. The pieces obtained are suspended in ten volumes (w/w) of buffer (20 mM Tris-HCl, pH 7.5), containing 0.1% Triton X-100. Test compounds (e.g. compounds of the present invention) are added at graded concentrations from stock solutions in ethanol or DMSO. Second, DHEAS as the substrate is added ([…] [^3H]DHEAS, specific activity: about 60 Ci/mmol, and 20 μM unlabeled DHEAS). Samples are incubated for 18 hrs at 37° C. At the end of the incubation period, 50 μl of 1 M Tris, pH 10.4 and 3 ml of toluene are added. A 1-ml aliquot of the organic phase is removed and subjected to liquid scintillation counting. The determined dpm-values in the aliquots are converted to nmol of DHEA cleaved per g of skin per hour.

For data set [2], the target named is T2, purified human steroid sulfatase (Homo sapiens, UniProt P08842).
T2 construct: Human placenta is obtained freshly after delivery and stripped of membranes and connective tissues; from tissue; host or cells: human placenta (microsomes, Triton X-100 extract, hydroxy apatite / concanavalin A sepharose / blue sepharose chromatography)
T2 sequence (P08842 22-583): T1 sequence (P08842 22-583)
Nature of the data set: Assay of Human Steroid Sulfatase (4-methylumbelliferyl sulfate cleavage). Format: biochemical. The note with it: reference compound, determined in parallel. Here is the method:
For storage, the material is frozen at −70° C.
The activity is recovered in the flow-through.
Plates are incubated at 37° C. for 1 hour.
Relative IC50 values are defined as follows: […]

The subject of data set [3] is irritant contact dermatitis elicited with tetradecanoylphorbol-13-acetate (TPA) on mouse ears. Nature of the data set: Anti-Inflammatory Test System (TPA-elicited irritant contact dermatitis, auricular weights). In kind it is in vivo, mice, strain NMRI. The note with it: topical 10 μl, 6 hours after TPA. Here is the method: The test sites on the inner surface of the right external ears of mice, e.g. strain NMRI, (8 per group) are treated with 10 μl of the dissolved test compound or with the vehicle (a 4:4:2 mixture of ethanol/acetone/dimethylacetamide) alone. The test compounds are applied alone or in combination at concentrations shown in the TEST RESULT TABLE. Thirty minutes after the treatment irritant contact dermatitis is elicitated at the treated auricular sites with 10 μl 0.005% tetradecanoylphorbol-13-acetate (TPA).
Skin inflammation is assessed 6 hours after the elicitation by determination of the auricular weights, as a measure of inflammatory swelling. The animals are killed and both ears are cut off and weighed. Inhibitory activity of test compounds is calculated from differences in right and left ears (internal controls) in mice treated with the test compounds compared with animals treated with the vehicle only. Results obtained are as set out in TEST RESULT TABLE below:
In the TEST RESULT TABLE the concentrations of the compounds (in bold) used are indicated in micromol/litre. The values given in the TEST RESULT TABLE (in regular letters) are the inhibition in % determined according to the ANTI-INFLAMMATORY TEST SYSTEM used.

Values joined by “and” are separate entries in the source; they are usually repeats but may differ in a detail not shown here. Equal values may be shown once.

`CC(C)(C)OC(=O)N1CC2CCCCC(C1)C2C(=O)NS(=O)(=O)c1cc(C(F)(F)F)cc(C(F)(F)F)c1` (single isomer, unassigned) [Example 217, 10-(3,5-bis-trifluoromethyl-benzenesulfonylaminocarbonyl)-8-aza-bicyclo[4.3.1]decane-8-carboxylic acid tert-butyl ester]: the IC50 in data set [1] was 0.03 to 0.27 µM and 0.27 µM.

For `O=C(NS(=O)(=O)c1cc(C(F)(F)F)cc(C(F)(F)F)c1)C1C2CCCCC1CN(C(=O)CC1CCCC1)C2` (centres unmarked) [Example 208], the IC50 in data set [1] was 0.03 to 0.27 µM.

In the case of `CC(C)(C)OC(=O)N1CC2CCCCC(C1)C2C(=O)NS(=O)(=O)c1cc(C(F)(F)F)cc(C(F)(F)F)c1` (centres unmarked) [Example 218], the IC50 in data set [1] was 0.03 to 0.27 µM and 0.27 µM.

`NC(=O)c1ccc(C(F)(F)F)cc1N1CCC(CC(=O)NS(=O)(=O)c2cccc(Cl)c2Cl)CC1` [Example 248]: the IC50 in data set [1] was in the range of 0.03 to 0.27 µM.

In the case of `NC(=O)c1ccc(C(F)(F)F)cc1N1CCC(CC(=O)NS(=O)(=O)c2cc(Cl)cc(Cl)c2)CC1` [Example 249], the IC50 in data set [1] was in the range of 0.03 to 0.27 µM.

As to `Cc1c(Cl)cccc1S(=O)(=O)NC(=O)CC1CCN(c2cc(C(F)(F)F)ccc2C(N)=O)CC1` [Example 251], the IC50 in data set [1] fell in the range of 0.03 to 0.27 µM.

In turn, `NC(=O)c1ccc(C(F)(F)F)cc1N1CCC(CS(=O)(=O)NC(=O)c2cc(C(F)(F)F)cc(C(F)(F)F)c2)CC1` [Example 379] showed a melting point of 268 to 273 °C. The same molecule came in with an IC50 in data set [1] of 0.03 to 0.27 µM.

Consider `C[C@]12CC[C@@H]3c4ccc(OS(N)(=O)=O)cc4CC[C@H]3[C@@H]1CCC2=O` [estrone sulfamate, estrone 3-O-sulfamate], for which the IC50 in data set [2] is around 0.06 µM.

As for `CC[C@@H]1/C=C(\C)C[C@H](C)C[C@H](OC)[C@H]2O[C@@](O)(C(=O)C(=O)N3CCCC[C@H]3C(=O)O[C@H](/C(C)=C/[C@@H]3CC[C@H](Cl)[C@H](OC)C3)[C@H](C)[C@@H](O)CC1=O)[C@H](C)C[C@@H]2OC` [pimecrolimus, {[1E-(1R,3R,4S)]1R,9S,12S,13R,14S,17R,18E,21S,23S,24R,25S,27R}-12-[2-(4-chloro-3-methoxycyclohexyl)-1-methylvinyl]-17-ethyl-1,14-dihydroxy-23,25-dimethoxy-13,19,21,27-tetramethyl-11,28,dioxa-4-azatricyclo[22.3.1.0(4,9)]octacos-18-ene-2,3,10,16-tetraone], the inhibition in % in data set [3] (pimecrolimus 0.1, example 217 or 218 0 micromol/litre) came out at 15%; in data set [3] (pimecrolimus 0.3, example 217 or 218 0 micromol/litre) it was 29%; in data set [3] (pimecrolimus 1.0, example 217 or 218 0 micromol/litre), 30%; in data set [3] (pimecrolimus 3.0, example 217 or 218 0 micromol/litre), 31%; in data set [3] (pimecrolimus 10, example 217 or 218 0 micromol/litre), 42%.
